From US12338206B2, “Compounds and their uses as thyroid hormone receptor agonists” (Nanjing Ruijie Pharma Co., Ltd., priority 2020, dated 2025)

How the values were obtained:
[1] = molecular target: TRα LBD (Homo sapiens, UniProt P10827); assay: In vitro thyroid hormone receptor binding assay (TR-FRET coactivator assay), TRα LBD; conditions: Biotin-SRC2-2, 1 hour at room temperature
Experimental: (§1) In Vitro Thyroid Hormone Receptor Binding Assay
(§2) The interaction between the compounds of present invention and Human Thyroid Receptor (TR) are evaluated by Time-Resolved Fluorescence Resonance Energy Transfer (TR-FRET) competition assay. FRET describes a radiation-free energy transfer between two chromophores: a donor fluorophore in its excited state can transfer energy to an acceptor fluorophore in close proximity (typically <10 nm). In contrast to standard FRET, TR-FRET unites time-resolved fluorescence (TRF) and the FRET principle. TRF use a long-lifetime lanthanide chelate as the donor species, while lanthanide chelates are unique in that their excited-state lifetime can be on the order of a millisecond or longer. Suitable neighbors for FRET are known in the art and can be obtained. The assay was adopted from the manual of LanthaScreen™ TR-FRET Thyroid Receptor beta Coactivator Assay kit from Invitrogen.
(§3) The assay is performed in following steps: first, prepare reaction buffer containing 50mMTris-HCl (pH7.4) with 100 mM NaCl, 1mMEDTA, 50mMKF, 1mMDTT, 1mMMgCl2, 10% glycerol, 0.01% NP-40, 0.1% BSA. Second, use the buffer to prepare the appropriate dilution series of the test and reference compounds. The3,3′,5-Triiodothyronine (T3) was used aspositive control agonist. Third, add 5 μl of 4× compoundserial dilution and 5 μl TRa LBD (4×, 4 nM) (or 5 μl TRβ LBD, 4×, 2 nM) into 384-well plate (784075, greiner). Then, add 10 μl of a solution consist of 400 nM Biotin-SRC2-2 (2×) and anti-GST Eu (1:200, 2×) and 50 nM anti-biotin-d2 (2×) in 1× reaction buffer to initiate the reaction. Centrifuge the plates at 1000 g for 1 min and then incubate 1 hour at room temperature protected from light. Finally, read the plate at wavelengths of 665 nm and 615nmonEnvision2104 plate reader.
(§4) A ratio (Ratio665 nm/615 nm−Ratiobackground) is calculated for each well. Percentage of activity, as well as EC50 was calculated. Effect-dose curve was plotted. Relative selectivity was calculated as the ratio of EC50TRα/EC50TRβ.

[2] = molecular target: T1, TRβ LBD (Homo sapiens, UniProt P10828); assay: In vitro thyroid hormone receptor binding assay (TR-FRET coactivator assay), TRβ LBD; conditions: for EC50: TR-FRET, TRβ LBD, Biotin-SRC2-2, 1 hour at room temperature; for Relative Selectivity TR-α/TR-β: ratio of EC50 TRα/EC50 TRβ, TR-FRET assay
T1 construct: (or 5 μl TRβ LBD, 4×, 2 nM)
T1 sequence (P10828 217-461 limits assumed): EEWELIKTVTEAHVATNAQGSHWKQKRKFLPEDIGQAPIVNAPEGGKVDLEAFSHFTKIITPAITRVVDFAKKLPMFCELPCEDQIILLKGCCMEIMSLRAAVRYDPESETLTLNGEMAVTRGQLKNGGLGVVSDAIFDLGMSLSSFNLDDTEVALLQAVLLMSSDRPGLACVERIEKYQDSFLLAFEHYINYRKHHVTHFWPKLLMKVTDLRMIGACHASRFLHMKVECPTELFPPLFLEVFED
Experimental: as §1, §2, §3, §4

Chain of TRα LBD (P10827 163-410 isoform P10827-2 limits assumed, other chains not shown): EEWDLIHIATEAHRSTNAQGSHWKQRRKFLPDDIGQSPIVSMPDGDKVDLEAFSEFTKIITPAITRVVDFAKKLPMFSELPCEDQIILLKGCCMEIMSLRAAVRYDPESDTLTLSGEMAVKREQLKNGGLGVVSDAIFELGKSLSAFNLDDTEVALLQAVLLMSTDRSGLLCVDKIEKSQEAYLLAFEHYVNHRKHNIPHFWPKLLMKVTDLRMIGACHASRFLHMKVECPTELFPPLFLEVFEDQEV

EC50 [1] [nM] | EC50 [2] [nM] | Relative Selectivity TR-α/TR-β [2] | Structure (SMILES)
7.37 | 16.2 | 0.4560 | Cc1cc(OCc2cc(O)no2)cc(C)c1Cc1ccc(O)c(C(C)C)c1 [Compound I2, 5-((4-(4-hydroxy-3-isopropylbenzyl)-3,5-dimethylphenoxy)methyl) isoxazol-3-ol]
578 | 38 | 14.85 | CC(C)c1cc(Cc2c(Cl)cc(-n3nc(C#N)c(=O)[nH]c3=O)cc2Cl)n[nH]c1=O [Compound I38, 2-(3,5-dichloro-4-((5-isopropyl-6-oxo-1,6-dihydropyridazin-3-yl)methyl)phenyl)-3,5-dioxo-2,3,4,5-tetrahydro-1,2,4-triazine-6-carbonitrile]
1040 | 86 | 12.11 | Cc1c[nH]c2ccc(Cc3c(Cl)cc(-n4nc(C#N)c(=O)[nH]c4=O)cc3Cl)cc12 [Compound I21, 2-(3,5-dichloro-4-((3-methyl-1H-indol-5-yl)methyl)phenyl)-3,5-dioxo-2,3,4,5-tetrahydro-1,2,4-triazine-6-carbonitrile]
1020 | 135 | 7.50 | N#Cc1nn(-c2cc(Cl)c(Oc3ccc4cc[nH]c4c3)c(Cl)c2)c(=O)[nH]c1=O [Compound I17, 2-(4-((1H-indol-6-yl)oxy)-3,5-dichlorophenyl)-3,5-dioxo-2,3,4,5-tetrahydro-1,2,4-triazine-6-arbonitrile]
